Where two headings read alike, the source gives them in different places. Where a SMILES comes first, the peptide text is derived from it. [ ]: non-standard residue; d: D form. Nle = CCCC[C@H](N)C(=O)O
How the values were obtained:
[1] = tested on: ISG15-conjugated cyclin D1; test: Immunoprecipitation/immunoblot of ISG15-cyclin D1 conjugates in BEAS-2B cells; format: cell-based, human; settings: BEAS-2B cells co-transfected with UBE1L, ISG15 and cyclin D1
Text: Cells were lysed with ice-cold radioimmunoprecipitation (RIPA) lysis buffer, using established techniques (Pitha-Rowe, et al. (2004) supra; Pitha-Rowe, et al. (2004) supra; Feng, et al. (2007) supra; Ma, et al. (2005) Cancer Res. 65:6476-83). Lysates were size-fractionated by sodium dodecyl sulphate-polyacrylamide gel electrophoresis (SDS-PAGE) assays before transfer to nitrocellulose membranes (Schleicher & Schuell Bioscience, Inc., Keene, N.H.). The polyclonal antibody recognizing the UBE1L amino terminus of UBE1L was used for immunoblot and immunohistochemical assays. Other primary antibodies for immunoblot assays included a rabbit polyclonal antibody recognizing cyclin D1 (M-20) (Santa Cruz Biotechnology, Santa Cruz, Calif.), a murine monoclonal antibody against hemagglutinin (HA)-tagged proteins (Babco, Richmond, Calif.) and a goat polyclonal antibody recognizing actin (Santa Cruz Biotechnology). Anti-mouse and anti-rabbit antisera were purchased (Amersham Biosciences, Piscataway, N.J.) as was anti-goat antisera (Santa Cruz Biotechnology) and these were used as respective secondary antibodies. Membranes used for immunoblot analyses were treated with the MEMCODE reversible stain (Pierce, Rockford, Ill.). […] Quantification of signal intensities was scored as before (Shah, et al. (2008) supra; Feng, et al. (2007) supra; Ma, et al. (2005) supra). […]

cyclin D1 [2] = test: Cyclin D1 immunoblot in H358 cells; format: cell-based
Experimental: (§1) The H358 lung cancer cell line was cultured in RPMI-1640 medium (INVITROGEN Corporation, Carlsbad, Calif.) containing L-glutamine, 10% fetal bovine serum and 1% antibiotic-antimycotic solution (CELLGRO, Herndon, Va.) (Petty, et al. (2004) Clin. Cancer Res. 10:7547-54). Cells were incubated at 37° C. in a humidified incubator with 5% CO2. Bexarotene treatments of HBE and lung cancer cells were accomplished according to known methods (Dragnev, et al. (2007) Clin. Cancer Res. 13:1794-800; Dragnev, et al. (2005) J. Clin. Oncol. 23:8757-64).
(§2) Cells were lysed with ice-cold radioimmunoprecipitation (RIPA) lysis buffer, using established techniques (Pitha-Rowe, et al. (2004) supra; Pitha-Rowe, et al. (2004) supra; Feng, et al. (2007) supra; Ma, et al. (2005) Cancer Res. 65:6476-83). Lysates were size-fractionated by sodium dodecyl sulphate-polyacrylamide gel electrophoresis (SDS-PAGE) assays before transfer to nitrocellulose membranes (Schleicher & Schuell Bioscience, Inc., Keene, N.H.). The polyclonal antibody recognizing the UBE1L amino terminus of UBE1L was used for immunoblot and immunohistochemical assays. […] Quantification of signal intensities was scored as before (Shah, et al. (2008) supra; Feng, et al. (2007) supra; Ma, et al. (2005) supra). […]

Ki-67 = Ki-67 immunostaining (proliferation), post- versus pretreatment lung cancer biopsies; format: in vivo
Text: (§3) Paraffin-embedded and formalin-fixed tissues were obtained from an Institutional Review Board-approved proof of principle bexarotene lung cancer trial (Dragnev, et al. (2007) supra). Tissues were examined for cyclin D1 (Petty, et al. (2004) supra; Dragnev, et al. (2007) supra; Dragnev, et al. (2005) supra), UBE1L (Pitha-Rowe, et al. (2004) supra), ISG15 (Andersen, et al. (2006) Br. J. Cancer 94:1465-71), and Ki-(Petty, et al. (2004) supra; Dragnev, et al. (2007) supra; Dragnev, et al. (2005) supra) immunohistochemical expression profiles.

cyclin D1 [3] = test: Cyclin D1 immunohistochemical expression, post- versus pretreatment lung cancer biopsies; format: in vivo
Text: as §3

UBE1L [4] = test: UBE1L immunohistochemical expression, post- versus pretreatment lung cancer biopsies; format: in vivo
Text: as §3

ISG15 [5] = test: ISG15 immunohistochemical expression, post- versus pretreatment lung cancer biopsies; format: in vivo; settings: post- and pre-bexarotene treatment biopsies of the lung cancer cases
Text: as §3

[6] = cited from earlier work
[7] = tested on: BEAS-2B human bronchial epithelial cells; test: Clonal growth assay; format: cell-based; settings: bexarotene treatment, FIG. 2
Experimental: Human bronchial epithelial cells (BEAS-2B) were cultured in serum-free LHC-9 medium (Biofluids, Rockville, Md.) in accordance with established techniques (Langenfeld, et al. (1997) Proc. Natl. Acad. Sci. USA 94:12070-12074; Boyle, et al. (1999) J. Natl. Cancer Inst. 91:373-379).
Five μg of MSCVIRES-UBE1L-GFP and an empty vector were independently transfected into the Phoenix Amphotropic packaging cell line (ATCC, Manassas, Va.) using EUGENE 6 (Roche, Indianapolis, Ind.), and the vendor's recommended procedures. Forty-eight hours later, viral supernatants were […] respective transduced BEAS-2B HBE or H358 lung cancer cells with 4 μg/ml POLYBRENE (Sigma). Forty-eight hours later, cells positive for GFP expression were harvested using a FACSTAR Plus (Becton Dickinson, San Jose, Calif.) high speed sorting cytometer. This was repeated one week later to enrich for studied transductants.
Clonal growth assays (Langenfeld, et al. (1996) Oncogene 13:1983-90) were performed using 5×10^2 BEAS-2B and 1×10^3 H358 cells. These cells were independently engineered to over-express UBE1L or a control vector. […] Two weeks later, visible colonies were fixed and stained with DIFF QUIK solution (Baxtor, McGaw Park, Ill.) and quantified with the Col Count instrument (Oxford Optronix, Oxford, UK).

cyclin D1 [8] = test: Cyclin D1 immunoblot in BEAS-2B cells; format: cell-based, human
Experimental: as §1, §2

UBE1L [9] = test: UBE1L immunoblot in BEAS-2B cells; format: cell-based, human; settings: 1 μM, 10 days treatment versus vehicle
Experimental: as §1, §2

UBE1L [10] = test: UBE1L immunoblot expression in NB4 cells; format: cell-based; settings: NB4-S1 APL cells, RA 1 μM
Text: Two rabbit polyclonal antibodies against UBE1L were independently derived (Covance Research Products, Denver, Pa.) using one peptide within the amino terminus (Asp-Cys-Asp-Pro-Arg-Ser-Ile-His-Val-Arg-Glu-Asp-Gly-Ser-Leu-Glu-Ile-Gly-Asp (SEQ ID NO:10)) and a second peptide within the carboxyl terminus (Pro-Gly-Ser-Gln-Asp-Trp-Thr-Ala-Leu-Arg-Glu-Leu-Leu-Lys-Leu-Leu (SEQ ID NO:11)). Specificities of these antisera were confirmed by immunoblot analyses of UBE1L-transfected CHO cells.
Immunoblot analyses were performed using established techniques (Langenfeld, et al. (1997) Proc. Natl. Acad. Sci. USA 94:12070-12074; Spinella, et al. (1999) J. Biol. Chem. 274:22013-22018). Anti-RARα antibody was provided by and can be purchased from P. Chambon (Institut National de la Sant et de la Recherche Mdicale, Strasbourg, France) to detect PML/RARα (Nason-Burchenal, et al. (1998) Blood 92:1758-1767; Nason-Burchenal, et al. (1998) Oncogene 17:1759-1768). An anti-HA mAb was purchased (Babco, Richmond, Calif.) as was an anti-actin polyclonal antibody, C-11 (Santa Cruz Biotechnology, Santa Cruz, Calif.).

NB4-S1 APL cells = test: NBT reduction maturation (differentiation) assay; format: cell-based; settings: 5 days treatment with RA (1 μM)
Experimental: (§4) The NB4 APL cell line expresses PML/RARα (Lanotte, et al. (1991) Blood 77:1080-1086). NB4-S1 and NB4-R1 are RA-sensitive and RA-resistant clones of NB4 cells, respectively (Nason-Burchanel, et al. (1997) Differentiation 61:321-331). These cells were cultured in RPMI-1640 medium supplemented with 10% FBS (see, Nason-Burchenal et al. (1997) supra).
NB4 cell differentiation was scored by using the nitroblue tetrazolium (NBT) reduction assay (Nason-Burchenal, et al. (1997) supra; Nason-Burchenal, et al. (1998a) Blood 92:1758-1767; Nason-Burchanel, et al. (1998b) Oncogene 17:1759-1768) Transductants were identified by green fluorescent protein (GFP) coexpression. Apoptosis was scored by using established techniques and Hoechst staining of transductants that co-expressed GFP (Nason-Burchenal, et al. (1998a) supra; Nason-Burchenal, et al. (1998b) supra; Stadheim, et al. (2001) Cancer Res. 61:1533-1540). Digital images were collected using an OLYMPUS 1×70 inverted microscope, a cooled charge-coupled device camera, and a MIRACAL Pro Single Cell Imaging System (OLYMPUS LSR Research, Melville, N.Y.).

E1 = E1 mRNA expression in NB4-S1 cells; format: cell-based; settings: RA 1 μM
ISG15 [11] = test: ISG15 expression and conjugation in NB4 cells; format: cell-based
UBE1L [12] = test: UBE1L mRNA expression, reverse transcription-PCR in NB4 APL cells; format: cell-based; settings: 10 μM RA
Experimental: as §4
UBE1L mRNA expression was assessed by a reverse transcription-PCR assay in accordance with established methods (Kakizuka et al. (1991) Cell 68:663-674). The forward primer was 5′-AGGTGGCCAAGAACTTGGTT-3′ (SEQ ID NO:8), and the reverse primer was 5′-CACCACCTGGAAGTCCAACA-3′ (SEQ ID NO:9). The PCR product was visualized by probing with a ^32P-labeled primer. Results were confirmed independently by Northern analysis using a 1.0-kb EcoRI/NcoI-radiolabeled UBE1L probe in accordance with standard techniques (Langenfeld et al. (1997) Proc. Natl. Acad. Sci. USA 94:12070-12074). This probe had limited homology to E1.

[13] = case with low bexarotene levels
[14] = lung cancer case with high levels
[15] = representative lung cancer case with low levels

For `CCCC[C@@H](C=O)NC(=O)[C@H](CC(C)C)NC(=O)[C@H](CC(C)C)NC(C)=O` [ALLN] (Ac-Leu-Leu-[Nle]-aldehyde), the “ISG15ylated cyclin D1 species” value [1] was “stabilized”.
In the case of `C=C(c1ccc(C(=O)O)cc1)c1cc2c(cc1C)C(C)(C)CCC2(C)C` [Bexarotene], the “cyclin D1 protein” value (cyclin D1 [2]) is reported as “repressed”, the “proliferation, Ki-67 immunostaining” value (Ki-67; case with high bexarotene levels, post-versus pretreatment biopsies) is reported as “decrease” and the “Repression of Ki-67 immunostaining” value (Ki-67; [13]) is reported as “not observed”. For the same molecule, the “cyclin D1 expression in post-versus pre-treatment biopsies” value (cyclin D1 [3]; case with high bexarotene plasma and intratumoral levels) was “declined”, the “cyclin D1 immunohistochemical expression profile” value (cyclin D1 [3]; [13]) was “not appreciably altered” and the “odds ratio, association between intratumoral bexarotene concentration and UBE1L increase” value (UBE1L [4]; 95% asymptotic CI 0.1, 354.9) was 6. For the same molecule, the UBE1L immunohistochemical expression (UBE1L [4]; case with high bexarotene levels) was “increase”, the “UBE1L immunohistochemical expression profile” value (UBE1L [4]; [13]) was “not appreciably altered” and the “response rate for UBE1L” value (UBE1L [4]; five cases examined, 95% CI 1, 72) was 20%. The ISG15 immunohistochemical expression (ISG15 [5]) was “similar”, the bexarotene intratumoral level [6, 14] was 0.31 µM and the bexarotene plasma level [6, 14] was 1.49 µM. The bexarotene intratumoral level [6, 15] was 0.09 µM, the bexarotene plasma level [6, 15] was 0.13 µM and the BEAS-2B clonal growth [7] was “dose-dependent decline”. For the same molecule, the BEAS-2B clonal growth ([7]; listed as bexarotene) was “Dose-dependent inhibition”, the “cyclin D1 protein” value (cyclin D1 [8]) was “repressed” and the UBE1L expression (UBE1L [9]) was “prominently increased”.
With `CC1=C(/C=C/C(C)=C/C=C/C(C)=C/C(=O)O)C(C)(C)CCC1` [RA, All-trans-retinoic acid] the UBE1L protein expression (UBE1L [10]) was “induced”, the “NBT, %” value (NB4-S1 APL cells) was 92% and the “E1 mRNA” value (E1) was “not induced”. The ISG15 expression (ISG15 [11]; RA-sensitive NB4 cells) was “augments”, the “intracellular ISG15 conjugation” value (ISG15 [11]; retinoid-sensitive NB4 cells) was “increases” and the UBE1L expression (UBE1L [12]; RA-resistant NB4-R1 cell line, same time period) was “not induced”. The “UBE1L mRNA induction” value (UBE1L [12]; RA-sensitive NB4-S1 cells, reverse transcription-PCR) was “induction occurred by three hours”.
